Consider nine molecules from ChEMBL document CHEMBL5465560, “Selectivity Literature for EUbOPEN Chemogenomic Library” (2024).

SMILES strings stand for the structures.

For one assay, the target named is Aurora kinase B (Homo sapiens, UniProt Q96GD4). Description: Selectivity interaction (Kinase panel (KiNativ target engagement assay in Jurkat cells)) EUB0001635a AURKB. Format: cell-based. Conditions: Selectivity number of off-targets 0.0, Selectivity number of targets 233.0, Source Knowledge https://www.sciencedirect.com/science/article/pii/S2451945619300674?via%3Dihub, at 1 µM.
Chain of Aurora kinase B (Q96GD4 whole entry): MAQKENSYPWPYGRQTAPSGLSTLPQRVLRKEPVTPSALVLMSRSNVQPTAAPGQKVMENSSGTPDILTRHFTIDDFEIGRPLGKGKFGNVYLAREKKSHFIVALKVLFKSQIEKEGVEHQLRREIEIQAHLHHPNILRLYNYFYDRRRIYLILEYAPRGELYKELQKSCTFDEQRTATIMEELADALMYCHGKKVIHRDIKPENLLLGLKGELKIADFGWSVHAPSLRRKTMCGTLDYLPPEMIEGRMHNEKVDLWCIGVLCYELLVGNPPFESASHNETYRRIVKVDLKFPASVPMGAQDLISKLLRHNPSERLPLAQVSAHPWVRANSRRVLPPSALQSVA

Assay [1] has as its target T1, Histone-arginine methyltransferase CARM1 (Homo sapiens) (UniProt Q86X55).
T1 sequence (whole entry): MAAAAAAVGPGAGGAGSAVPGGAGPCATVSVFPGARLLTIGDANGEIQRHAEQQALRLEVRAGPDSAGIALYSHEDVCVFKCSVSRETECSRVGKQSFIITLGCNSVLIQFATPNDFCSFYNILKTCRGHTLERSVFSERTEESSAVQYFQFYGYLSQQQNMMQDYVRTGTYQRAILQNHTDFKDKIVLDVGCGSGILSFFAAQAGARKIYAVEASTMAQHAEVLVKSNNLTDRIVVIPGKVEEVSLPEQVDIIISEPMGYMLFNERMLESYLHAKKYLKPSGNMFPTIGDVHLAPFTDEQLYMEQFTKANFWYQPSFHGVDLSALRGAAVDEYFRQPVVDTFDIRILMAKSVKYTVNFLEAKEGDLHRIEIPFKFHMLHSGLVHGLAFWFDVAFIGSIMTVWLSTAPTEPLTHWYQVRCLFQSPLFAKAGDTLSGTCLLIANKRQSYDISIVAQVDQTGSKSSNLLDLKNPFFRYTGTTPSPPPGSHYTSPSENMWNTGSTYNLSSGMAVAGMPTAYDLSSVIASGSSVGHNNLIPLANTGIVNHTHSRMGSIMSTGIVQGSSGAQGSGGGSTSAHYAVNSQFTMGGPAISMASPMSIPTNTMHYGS
In words: Selectivity interaction (Methyltransferase screen (radiometric assays, panel of 8 PRMTs, 21 protein lysine methyltransferases, 3 DNA methyltransferases, and one RNA methyltransferase)) EUB0000271b CARM1.

Assay [2] addresses T2, Homeodomain-interacting protein kinase 4 (Homo sapiens) (UniProt Q8NE63).
T2 sequence (whole entry): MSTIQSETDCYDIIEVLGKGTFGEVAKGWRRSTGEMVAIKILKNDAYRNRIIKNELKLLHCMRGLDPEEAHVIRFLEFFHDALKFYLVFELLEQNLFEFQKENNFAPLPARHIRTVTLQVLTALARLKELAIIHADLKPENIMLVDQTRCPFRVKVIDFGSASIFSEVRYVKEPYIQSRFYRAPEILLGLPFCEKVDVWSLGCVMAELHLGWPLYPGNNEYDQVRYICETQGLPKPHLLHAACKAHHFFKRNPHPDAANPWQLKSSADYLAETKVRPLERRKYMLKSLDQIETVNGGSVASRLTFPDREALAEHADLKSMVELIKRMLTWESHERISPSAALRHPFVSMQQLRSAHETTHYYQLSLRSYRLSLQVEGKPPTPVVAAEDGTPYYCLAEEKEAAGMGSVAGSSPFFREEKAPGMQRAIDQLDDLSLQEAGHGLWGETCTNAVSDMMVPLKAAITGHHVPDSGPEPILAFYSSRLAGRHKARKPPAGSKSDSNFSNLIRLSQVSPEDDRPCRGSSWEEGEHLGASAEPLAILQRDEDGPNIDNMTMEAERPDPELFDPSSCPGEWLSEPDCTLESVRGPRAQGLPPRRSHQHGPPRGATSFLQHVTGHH
In words: Selectivity interaction (KinomeScan (DiscoverX)) EUB0000666a HIPK4. Conditions: at 10 µM.

Assay [3] has as its target Mitogen-activated protein kinase 9 (Homo sapiens, UniProt P45984). Description: Selectivity interaction (KinomeScan (DiscoverX)) EUB0000655a MAPK9. Conditions: at 10 µM.
The target of assay [4] is MAP kinase-interacting serine/threonine-protein kinase 1 (Homo sapiens) (UniProt Q9BUB5). In words: Selectivity interaction (KinomeScan (DiscoverX)) EUB0001619a MKNK1. Conditions: at 1 µM.
Chain of MAP kinase-interacting serine/threonine-protein kinase 1 (Homo sapiens) (Q9BUB5 whole entry, looked up): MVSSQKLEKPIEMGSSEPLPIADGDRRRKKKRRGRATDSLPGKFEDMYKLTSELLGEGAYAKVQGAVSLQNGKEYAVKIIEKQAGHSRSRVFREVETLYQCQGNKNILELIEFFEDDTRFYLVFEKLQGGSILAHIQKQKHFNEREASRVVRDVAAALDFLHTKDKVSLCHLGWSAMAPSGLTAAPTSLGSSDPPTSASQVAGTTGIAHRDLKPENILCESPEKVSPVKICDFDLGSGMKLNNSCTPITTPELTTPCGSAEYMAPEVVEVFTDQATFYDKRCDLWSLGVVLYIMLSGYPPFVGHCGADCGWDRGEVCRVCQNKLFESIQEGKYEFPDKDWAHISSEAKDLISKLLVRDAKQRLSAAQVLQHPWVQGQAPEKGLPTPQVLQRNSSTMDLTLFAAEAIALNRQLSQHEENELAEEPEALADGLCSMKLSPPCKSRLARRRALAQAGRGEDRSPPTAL
Assay [5] concerns the target NT-3 growth factor receptor (Homo sapiens, UniProt Q16288). Description: Selectivity interaction (KinomeScan (DiscoverX)) EUB0001619a NTRK3. Conditions: at 1 µM.
Assay [6] deals with Muscarinic acetylcholine receptor M1 (Homo sapiens, UniProt P11229). In words: Selectivity interaction (Muscarinic M1 receptor assay, human recombinant ) EUB0000877a CHRM1.
Chain of Muscarinic acetylcholine receptor M1 (P11229 whole entry): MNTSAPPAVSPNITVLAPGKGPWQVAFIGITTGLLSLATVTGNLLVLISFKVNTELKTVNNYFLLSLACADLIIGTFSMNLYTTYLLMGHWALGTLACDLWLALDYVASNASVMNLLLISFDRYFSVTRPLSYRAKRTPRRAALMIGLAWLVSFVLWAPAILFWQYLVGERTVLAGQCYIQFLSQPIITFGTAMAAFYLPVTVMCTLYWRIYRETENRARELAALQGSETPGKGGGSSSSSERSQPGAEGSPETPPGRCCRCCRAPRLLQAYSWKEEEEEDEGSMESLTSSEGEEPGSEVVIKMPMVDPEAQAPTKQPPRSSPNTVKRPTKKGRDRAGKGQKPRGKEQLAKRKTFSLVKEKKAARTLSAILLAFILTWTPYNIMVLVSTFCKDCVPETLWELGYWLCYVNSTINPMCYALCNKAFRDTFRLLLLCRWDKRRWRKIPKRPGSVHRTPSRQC
For assay [7], the target named is Serine/threonine-protein kinase Nek4 (Homo sapiens) (UniProt P51957). Description: Selectivity interaction (Kinase panel (Invitrogen)) EUB0000639a NEK4. Conditions: at 200 nM.
Chain of Serine/threonine-protein kinase Nek4 (Homo sapiens) (P51957 whole entry, looked up): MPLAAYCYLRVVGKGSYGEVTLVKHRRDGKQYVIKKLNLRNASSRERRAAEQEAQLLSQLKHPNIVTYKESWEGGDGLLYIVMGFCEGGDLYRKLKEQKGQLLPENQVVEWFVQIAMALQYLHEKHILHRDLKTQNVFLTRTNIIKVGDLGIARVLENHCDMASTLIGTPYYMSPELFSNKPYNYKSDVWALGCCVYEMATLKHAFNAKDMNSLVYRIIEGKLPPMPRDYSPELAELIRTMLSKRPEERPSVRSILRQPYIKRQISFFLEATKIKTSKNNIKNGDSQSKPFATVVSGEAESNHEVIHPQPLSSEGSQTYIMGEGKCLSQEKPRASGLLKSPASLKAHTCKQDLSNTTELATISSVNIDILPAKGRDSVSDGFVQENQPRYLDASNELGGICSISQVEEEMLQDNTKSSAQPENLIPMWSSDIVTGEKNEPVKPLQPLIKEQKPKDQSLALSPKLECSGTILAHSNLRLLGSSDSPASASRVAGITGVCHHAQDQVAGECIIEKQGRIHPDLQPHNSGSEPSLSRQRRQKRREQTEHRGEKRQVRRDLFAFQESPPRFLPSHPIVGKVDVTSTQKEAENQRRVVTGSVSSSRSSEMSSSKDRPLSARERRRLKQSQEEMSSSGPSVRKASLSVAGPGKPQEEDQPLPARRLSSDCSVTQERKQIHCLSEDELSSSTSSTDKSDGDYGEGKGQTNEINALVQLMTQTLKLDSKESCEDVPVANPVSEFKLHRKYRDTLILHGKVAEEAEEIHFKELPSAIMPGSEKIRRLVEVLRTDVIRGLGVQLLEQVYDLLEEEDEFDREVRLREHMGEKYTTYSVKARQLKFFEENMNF
The target of assay [8] is Serine/threonine-protein kinase PAK 2 (Homo sapiens) (UniProt Q13177). Conditions: at 10 µM.
Chain of Serine/threonine-protein kinase PAK 2 (Homo sapiens) (Q13177 whole entry): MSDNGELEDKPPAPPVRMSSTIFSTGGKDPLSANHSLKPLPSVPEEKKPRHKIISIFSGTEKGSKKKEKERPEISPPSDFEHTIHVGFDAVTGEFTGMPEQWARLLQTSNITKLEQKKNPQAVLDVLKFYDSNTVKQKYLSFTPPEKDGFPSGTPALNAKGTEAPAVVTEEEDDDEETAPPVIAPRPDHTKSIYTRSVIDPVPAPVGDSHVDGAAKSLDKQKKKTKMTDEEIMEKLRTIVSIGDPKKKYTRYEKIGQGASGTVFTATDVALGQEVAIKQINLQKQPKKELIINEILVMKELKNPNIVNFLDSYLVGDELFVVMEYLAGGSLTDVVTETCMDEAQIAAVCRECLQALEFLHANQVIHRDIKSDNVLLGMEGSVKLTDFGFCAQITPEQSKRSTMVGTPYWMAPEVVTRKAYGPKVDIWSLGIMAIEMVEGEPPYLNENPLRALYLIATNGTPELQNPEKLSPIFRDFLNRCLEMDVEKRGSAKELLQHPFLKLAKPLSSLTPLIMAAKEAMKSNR
Assay [9] has as its target T3, Cyclin-dependent kinase-like 2 (Homo sapiens) (UniProt Q92772).
T3 sequence (whole entry): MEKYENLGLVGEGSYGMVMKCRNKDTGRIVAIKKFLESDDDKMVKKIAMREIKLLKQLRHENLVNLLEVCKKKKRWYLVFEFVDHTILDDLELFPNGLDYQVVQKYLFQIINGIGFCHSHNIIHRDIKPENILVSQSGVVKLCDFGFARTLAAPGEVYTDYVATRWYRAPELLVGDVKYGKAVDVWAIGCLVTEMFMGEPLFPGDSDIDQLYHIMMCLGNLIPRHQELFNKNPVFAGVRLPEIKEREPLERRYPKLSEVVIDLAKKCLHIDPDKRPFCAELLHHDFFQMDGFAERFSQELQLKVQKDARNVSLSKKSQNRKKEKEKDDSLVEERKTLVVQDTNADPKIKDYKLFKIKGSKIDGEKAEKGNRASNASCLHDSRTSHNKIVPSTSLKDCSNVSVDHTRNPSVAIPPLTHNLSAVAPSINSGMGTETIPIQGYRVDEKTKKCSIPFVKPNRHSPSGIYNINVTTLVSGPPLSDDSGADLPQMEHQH
Description: Selectivity interaction (KinomeScan (DiscoverX)) EUB0000045b CDKL2.

Chain of Mitogen-activated protein kinase 9 (P45984 whole entry, looked up): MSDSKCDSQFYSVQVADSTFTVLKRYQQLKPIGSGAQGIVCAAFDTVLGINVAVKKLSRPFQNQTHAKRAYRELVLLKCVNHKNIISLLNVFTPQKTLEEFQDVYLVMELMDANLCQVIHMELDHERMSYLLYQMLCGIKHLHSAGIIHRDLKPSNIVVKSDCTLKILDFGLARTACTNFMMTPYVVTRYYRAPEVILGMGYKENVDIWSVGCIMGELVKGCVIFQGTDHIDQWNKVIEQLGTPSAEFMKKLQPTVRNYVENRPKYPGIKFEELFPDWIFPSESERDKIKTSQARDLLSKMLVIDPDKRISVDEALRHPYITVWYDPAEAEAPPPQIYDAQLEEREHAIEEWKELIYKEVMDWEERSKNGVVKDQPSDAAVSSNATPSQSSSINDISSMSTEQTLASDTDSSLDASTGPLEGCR
Chain of NT-3 growth factor receptor (Q16288 32-839 limits assumed): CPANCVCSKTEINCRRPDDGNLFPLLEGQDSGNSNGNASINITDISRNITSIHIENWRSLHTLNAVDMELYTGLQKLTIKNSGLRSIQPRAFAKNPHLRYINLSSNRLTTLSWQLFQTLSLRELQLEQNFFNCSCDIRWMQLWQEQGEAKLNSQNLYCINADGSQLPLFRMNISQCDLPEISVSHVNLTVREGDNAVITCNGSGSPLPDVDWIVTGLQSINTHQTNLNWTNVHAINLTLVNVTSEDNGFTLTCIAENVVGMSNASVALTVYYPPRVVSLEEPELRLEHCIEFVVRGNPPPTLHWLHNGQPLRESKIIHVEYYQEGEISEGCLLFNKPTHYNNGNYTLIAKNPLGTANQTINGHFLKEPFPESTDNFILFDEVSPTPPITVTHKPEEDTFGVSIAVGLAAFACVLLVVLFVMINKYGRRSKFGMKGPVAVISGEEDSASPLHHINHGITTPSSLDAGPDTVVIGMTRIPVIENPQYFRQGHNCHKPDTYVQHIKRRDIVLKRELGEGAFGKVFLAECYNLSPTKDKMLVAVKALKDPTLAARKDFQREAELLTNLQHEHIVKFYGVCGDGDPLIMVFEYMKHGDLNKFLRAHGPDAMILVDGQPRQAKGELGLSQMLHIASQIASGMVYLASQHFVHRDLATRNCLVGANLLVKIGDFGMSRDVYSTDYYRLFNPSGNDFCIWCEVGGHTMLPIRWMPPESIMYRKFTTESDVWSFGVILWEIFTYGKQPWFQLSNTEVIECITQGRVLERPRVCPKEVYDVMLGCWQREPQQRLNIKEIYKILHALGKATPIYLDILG

As for `C=CC(=O)Nc1ccc(C(=O)Nc2[nH]nc3c2CN(C(=O)N[C@H](CN(C)C)c2ccccc2)C3(C)C)cc1`, the % of engagement at Aurora kinase B worked out at 23%. `Cc1cc(C)cc([C@@H]2c3cc(C)ccc3NC(=O)CN2C(=O)c2ccc(Br)s2)c1`: the % of activity was found to be 98% in assay [1] (at 1 µM) and 96.3% in assay [1] (at 10 µM).

Molecule `O=C(NOC[C@H](O)CO)c1ccc(F)c(F)c1Nc1ccc(I)cc1F` had a % of control in assay [2] of 100%. The molecule `CN(C)CCOc1ccc(-c2nc(-c3ccncc3)c(-c3ccc4c(c3)CC/C4=N\O)[nH]2)cc1` showed a % of control in assay [3] of 5.1%. `N#Cc1cccc(-c2c[nH]c3ncnc(N4CCOCC4)c23)c1`: the % of control in [4] amounted to 100%; in assay [5], 84%. In general, IC50 refers to the concentration that gives 50% inhibition. As for `CCC(=O)N1CC[C@H](Nc2ncnc3c2CN(c2cnc(OC)c(C(F)(F)F)c2)CC3)C1` [LENIOLISIB], in assay [6], the IC50 is above 30 µM. On to `CC[C@@H]1[C@H](F)C(=O)N[C@@H]1COc1nccc2cc(C(N)=O)c(OC)cc12` [ZIMLOVISERTIB], for which the % of inhibition in [7] was 3.25%. `CCN(CC)CCCCNc1ncc2cc(-c3cc(OC)cc(OC)c3)c(NC(=O)NC(C)(C)C)nc2n1` showed a % of control in assay [8] of 100%. As for `C=CC(=O)Nc1cc(-n2c(=O)ccc3cnc4ccc(-c5ccc(NS(C)(=O)=O)cc5)cc4c32)ccc1C`, the % of control in [9] (at 1 µM) and in assay [9] (at 10 µM) was 93% in each case.
